32 compounds from patent US20250221966A1, “RXFP1 AGONISTS” (BRISTOL-MYERS SQUIBB COMPANY, priority 2021, published 2025) can be followed below.

Usually EC50 stands for the concentration needed to bring the measured effect to its halfway point.

This experiment deals with T1, human RXFP1 (Homo sapiens, UniProt Q9HBX9).
T1 construct: expressed in transfected cells
T1 sequence (Q9HBX9 1-757): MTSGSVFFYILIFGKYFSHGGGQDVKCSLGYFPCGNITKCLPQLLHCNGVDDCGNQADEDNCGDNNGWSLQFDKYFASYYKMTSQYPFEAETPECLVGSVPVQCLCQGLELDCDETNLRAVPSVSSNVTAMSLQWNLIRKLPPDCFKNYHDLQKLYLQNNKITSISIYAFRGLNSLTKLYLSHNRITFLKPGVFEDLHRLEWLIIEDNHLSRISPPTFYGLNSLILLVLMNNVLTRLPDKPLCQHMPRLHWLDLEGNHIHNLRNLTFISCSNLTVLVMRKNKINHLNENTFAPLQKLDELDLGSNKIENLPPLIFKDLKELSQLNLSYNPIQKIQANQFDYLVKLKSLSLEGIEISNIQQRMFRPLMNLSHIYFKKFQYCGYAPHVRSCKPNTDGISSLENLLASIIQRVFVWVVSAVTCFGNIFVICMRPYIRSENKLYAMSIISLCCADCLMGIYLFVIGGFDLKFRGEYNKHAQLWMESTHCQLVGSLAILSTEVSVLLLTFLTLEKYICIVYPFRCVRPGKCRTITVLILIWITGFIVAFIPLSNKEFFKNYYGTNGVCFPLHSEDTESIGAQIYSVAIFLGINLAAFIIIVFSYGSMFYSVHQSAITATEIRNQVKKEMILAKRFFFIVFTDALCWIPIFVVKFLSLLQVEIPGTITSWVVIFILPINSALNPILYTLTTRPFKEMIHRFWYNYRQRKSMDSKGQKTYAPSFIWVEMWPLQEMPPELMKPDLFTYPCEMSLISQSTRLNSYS
In words: RXFP1 cAMP assay (hRXFP1 HEK293 cAMP assay, HTRF). It counts as cell-based. The settings on record: HEK293 cells stably expressing human RXFP1, 30 min at room temperature, read-out: cAMP hRXFP1 HEK293 Assay EC50. The method, then:
RXFP1 Cyclic Adenosine Monophosphate (cAMP) Assays. […] Cells were dissociated and suspended in assay buffer. The assay buffer was HBSS buffer (with calcium and magnesium) containing 20 mM HEPES, 0.05% BSA, and 0.5 mM IBMX. Cells (3000 cells per well, except 1500 cell per well for HEK293 cells stably expressing human RXFP1) were added to 384-well Proxiplates (Perkin-Elmer). Cells were immediately treated with test compounds in DMSO (2% final) at final concentrations in the range of 0.010 nM to 50 μM. Cells were incubated for 30 min at room temperature. The level of intracellular cAMP was determined using the HTRF HiRange cAMP assay reagent kit (Cisbio) according to manufacturer's instructions. Solutions of cryptate conjugated anti-cAMP and d2 fluorophore-labelled cAMP were made in a supplied lysis buffer separately. Upon completion of the reaction, the cells were lysed with equal volume of the d2-cAMP solution and anti-cAMP solution. […] The potency and activity of a compound to […] cAMP production was then determined by fitting to a 4-parametric logistic equation from a plot of cAMP level versus compound concentrations.
For `COc1ccc(N2CCC(NC(=O)C3CCOCC3)C2)cc1C(=O)N[C@@H]1C2CCC(/C2=C/C(F)(F)F)[C@@H]1C(=O)Nc1ccc(F)c(C(F)(F)F)c1` (single isomer, unassigned) [compound 337], the concentration for a half-maximal effect (EC50) worked out at 2080 nM. Consider `COc1ccc(C2=NOC3CC(CO)CC23)cc1C(=O)N[C@@H]1C2CCC(/C2=C/C2CC2)[C@@H]1C(=O)Nc1ccc(F)c(C(F)(F)F)c1` (single isomer, unassigned) [compound 431], for which the EC50 worked out at 250 nM. For `COc1ccc(C2=NOC3CC(CO)CC23)cc1C(=O)N[C@@H]1C2CCC(/C2=C/C2CC2)[C@@H]1C(=O)Nc1ccc(F)c(C(F)(F)F)c1` (single isomer, unassigned) [compound 432] the value was 2 nM.

As for `COc1ccc(C2=NOC3CC(CO)CC23)cc1C(=O)N[C@@H]1C2CCC(/C2=C/C2CC2)[C@@H]1C(=O)Nc1ccc(F)c(C(F)(F)F)c1` (single isomer, unassigned) [compound 433], the EC50 stood at 2 nM. In the case of `COc1ccc(C2=NOC3CS(=O)(=O)CC23)cc1C(=O)N[C@@H]1C2CCC(/C2=C/C2CC2)[C@@H]1C(=O)Nc1ccc(F)c(C(F)(F)F)c1` (single isomer, unassigned) [compound 443] it was 5 nM. In the case of `COc1ccc(C2=NOC3CS(=O)(=O)CC23)cc1C(=O)N[C@@H]1C2CCC(/C2=C/C2CC2)[C@@H]1C(=O)Nc1ccc(F)c(C(F)(F)F)c1` (single isomer, unassigned) [compound 444] it was 410 nM. Regarding `COc1ccc(C2=NOC3CN(CCO)CC23)cc1C(=O)N[C@H]1[C@@H](C(=O)Nc2ccc(F)c(C(F)(F)F)c2)[C@H]2CC[C@@H]1/C2=C\C1CC1` (single isomer, unassigned) [compound 455], the EC50 came out at 2 nM. For `COc1ccc(C2=NOC3CC(C(N)=O)CC23)cc1C(=O)N[C@H]1[C@@H](C(=O)Nc2ccc(F)c(C(F)(F)F)c2)[C@H]2CC[C@@H]1/C2=C\C1CC1` (single isomer, unassigned) [compound 459] the value was 2.5 nM; for `COc1ccc(C2=NOC3CC(C(C)(C)O)CC23)cc1C(=O)N[C@H]1[C@@H](C(=O)Nc2ccc(F)c(C(F)(F)F)c2)[C@H]2CC[C@@H]1/C2=C\C1CC1` (single isomer, unassigned) [compound 462], 3 nM; for `COc1cc(F)c(C2=NOC3COCC23)cc1C(=O)N[C@H]1[C@@H](C(=O)Nc2ccc(F)c(C(F)(F)F)c2)[C@H]2CC[C@@H]1/C2=C\C1CC1` (single isomer, unassigned) [compound 463], 3.1 nM. For the compound `COc1ccc(C2=NOC3CC(C(C)(C)O)CC23)cc1C(=O)N[C@H]1[C@@H](C(=O)Nc2ccc(F)c(C(F)(F)F)c2)[C@H]2CC[C@@H]1/C2=C\C1CC1` (single isomer, unassigned) [compound 464], the EC50 was 3.2 nM. For `O=C(N[C@H]1[C@@H](C(=O)Nc2ccc(F)c(C(F)(F)F)c2)[C@H]2CC[C@@H]1/C2=C\C1CC1)c1cc(C2=NOC3CC(CO)CC23)ccc1F` (single isomer, unassigned) [compound 473], the EC50 worked out at 4.9 nM.

With `CN(C)c1c(Cl)cc(C2=NOC3COCC23)cc1C(=O)N[C@H]1[C@@H](C(=O)Nc2ccc(F)c(C(F)(F)F)c2)[C@H]2CC[C@@H]1/C2=C\C1CC1` (single isomer, unassigned) [compound 474], the EC50 stood at 5 nM. For the compound `COc1ccc(C2=NOC(C)(CO)C2)cc1C(=O)N[C@H]1[C@@H](C(=O)Nc2ccc(F)c(C(F)(F)F)c2)[C@H]2CC[C@@H]1C2=CC1CC1` (single isomer, unassigned) [compound 480], the EC50 was 6.7 nM. In the case of `COc1ccc(C2=NOC(CO)C2CO)cc1C(=O)N[C@H]1[C@@H](C(=O)Nc2ccc(F)c(C(F)(F)F)c2)[C@H]2CC[C@@H]1/C2=C\C1CC1` (single isomer, unassigned) [compound 481] it was 6.7 nM. In the case of `COc1ccc(C2=NOC3CC(C(N)=O)CC23)cc1C(=O)N[C@H]1[C@@H](C(=O)Nc2ccc(F)c(C(F)(F)F)c2)[C@H]2CC[C@@H]1/C2=C\C(F)(F)F` (single isomer, unassigned) [compound 482], the EC50 was determined as 6.8 nM. In the case of `COc1ccc(C2=NOC3C(O)CCC23)cc1C(=O)N[C@H]1[C@@H](C(=O)Nc2ccc(F)c(C(F)(F)F)c2)[C@H]2CC[C@@H]1/C2=C\C1CC1` (single isomer, unassigned) [compound 483] it was 7.3 nM; in that of `COc1ccc(C2=NO[C@@H]3CC[C@H](O)[C@H]23)cc1C(=O)N[C@H]1[C@@H](C(=O)Nc2ccc(F)c(C(F)(F)F)c2)[C@H]2CC[C@@H]1/C2=C\C1CC1` (single isomer, unassigned) [compound 484], 7.4 nM; in that of `COc1ccc(C2=NOC(C3(O)CCCC3)C2)cc1C(=O)N[C@H]1[C@@H](C(=O)Nc2ccc(F)c(C(F)(F)F)c2)[C@H]2CC[C@@H]1/C2=C\C1CC1` (single isomer, unassigned) [compound 488], 8.2 nM. For `COc1ccc(C2=NOC(C3(O)CC3)C2)cc1C(=O)N[C@H]1[C@@H](C(=O)Nc2ccc(F)c(C(F)(F)F)c2)[C@H]2CC[C@@H]1/C2=C\C1CC1` (single isomer, unassigned) [compound 491] the value was 8.7 nM; for `COc1ccc(C2=NOC3CCC(O)C23)cc1C(=O)N[C@H]1[C@@H](C(=O)Nc2ccc(F)c(C(F)(F)F)c2)[C@H]2CC[C@@H]1/C2=C\C1CC1` (single isomer, unassigned) [compound 496], 10.5 nM; for `COc1ccc(C2=NOC(CC(C)(C)O)C2)cc1C(=O)N[C@H]1[C@@H](C(=O)Nc2ccc(F)c(C(F)(F)F)c2)[C@H]2CC[C@@H]1/C2=C\C1CC1` (single isomer, unassigned) [compound 499], 11 nM. Regarding `COc1ccc(C2=NOC(C(C)O)C2)cc1C(=O)N[C@H]1[C@@H](C(=O)Nc2ccc(F)c(C(F)(F)F)c2)[C@H]2CC[C@@H]1/C2=C\C1CC1` (single isomer, unassigned) [compound 509], the 50% effective concentration (EC50) came to 15.2 nM. In the case of `COc1ccc(C2=NOC3COCC23)c(F)c1C(=O)N[C@H]1[C@@H](C(=O)Nc2ccc(F)c(C(F)(F)F)c2)[C@H]2CC[C@@H]1/C2=C\C1CC1` (single isomer, unassigned) [compound 513], the EC50 came out at 16.5 nM.

On to `O=C(N[C@H]1[C@@H](C(=O)Nc2ccc(F)c(C(F)(F)F)c2)[C@H]2CC[C@@H]1/C2=C\C1CC1)c1cc(C2=NOC3COCC23)ccc1F` (single isomer, unassigned) [compound 514], for which the concentration giving a half-maximal response (EC50) is 17.2 nM. In the case of `COc1ccc(C2=NOC(C3(O)CCC3)C2)cc1C(=O)N[C@H]1[C@@H](C(=O)Nc2ccc(F)c(C(F)(F)F)c2)[C@H]2CC[C@@H]1/C2=C\C1CC1` (single isomer, unassigned) [compound 515] it was 17.2 nM; in that of `COc1ccc(C2=NOC(C(C)(O)C(F)(F)F)C2)cc1C(=O)N[C@H]1[C@@H](C(=O)Nc2ccc(F)c(C(F)(F)F)c2)[C@H]2CC[C@@H]1/C2=C\C1CC1` (single isomer, unassigned) [compound 517], 18 nM.

As for `CN(C)c1ccc(C2=NOC3COCC23)cc1C(=O)N[C@H]1[C@@H](C(=O)Nc2ccc(F)c(C(F)(F)F)c2)[C@H]2CC[C@@H]1/C2=C\C(F)(F)F` (single isomer, unassigned) [compound 518], the EC50 amounted to 18.4 nM. For `COc1ccc(C2=NOC(C(C)(C)O)C2)cc1C(=O)N[C@H]1[C@@H](C(=O)Nc2ccc(F)c(C(F)(F)F)c2)[C@H]2CC[C@@H]1/C2=C\C1CC1` (single isomer, unassigned) [compound 524] the value was 21.9 nM; for `COc1ccc(C2=NOC(CC(C)(C)O)C2)cc1C(=O)N[C@H]1[C@@H](C(=O)Nc2ccc(F)c(C(F)(F)F)c2)[C@H]2CC[C@@H]1/C2=C\C1CC1` (single isomer, unassigned) [compound 528], 22.4 nM; for `COc1ccc(C2=NO[C@H]3[C@@H]2[C@@H](O)C[C@H]3O)cc1C(=O)N[C@H]1[C@@H](C(=O)Nc2ccc(F)c(C(F)(F)F)c2)[C@H]2CC[C@@H]1/C2=C\C1CC1` (single isomer, unassigned) [compound 539], 29.3 nM. In the case of `COc1ccc(C2=NOC3(CO)CCCC23)cc1C(=O)N[C@H]1[C@@H](C(=O)Nc2ccc(F)c(C(F)(F)F)c2)[C@H]2CC[C@@H]1/C2=C\C1CC1` (single isomer, unassigned) [compound 548] it was 32.6 nM.
